{"source": "paper PMC5618791", "about": "“Double quick, double click reversible peptide “stapling”” (Chemical Science, 2017)", "key": {"[1]": {"test": "Circular dichroism, % helicity", "format": "physicochemical", "settings": "CD, peptide 10-20 μM, calculated from MRE at 222 nm", "experimental": "Samples were prepared in two different solvent systems (30% TFE:H2O, 30% CH3CN:water) to concentrations between 10 - 20 μM (Figure S 23). Considering the high number of hydrophobic residues in BID and S peptides, organic co-solvents were used to ensure good solubility and avoid aggregation at concentrations high enough for CD analyses. DMSO stocks of peptides were not used for CD due to its high absorbance below 230 nm.\nThe raw circular dichroism data obtained for the peptides was processed by the subtraction of the solvent signal and converted into a mean residue ellipticity:\nWhere = molar ellipticity[θ]MRE per residue, θ = circular dichroism at a given wavelength, c = molar concentration, l = path length in cm, R = number of residues in the peptide sequence.\nCalculation of % helicity was performed by the following equation:[4]\nWhere: θH = Theoretical MRE for 100% helicity at 222 nm, θ0 = Theoretical MRE for 100% helicity at 222 nm at 0 °C = –44000, (∂θ/∂T) = temperature dependence of infinite helix = +250, T = temperature in °C, x = 3, Nr = number of residues in the peptide.\nIn both solvent systems, it is noteworthy that STA-peptides are more helical than RED-peptides or WT-peptides; with the exception of constrained S-Cys-peptides. The use of TFE as co-solvent in water enhances the α-helicity of both series of peptides compared to the use of acetonitrile in water. […]\nthus bioactive) conformation. The S peptides show a low helix propensity which is consistent […]\nFigure S 23: CD spectra A. and B. in 30% TFE:H 2O; C. and D. in 30% CH3CN:H 2O.\nTable 1: Percentage of helicity in the three solvent systems […]\n(also on this page, place not known: Molar residue ellipticity (deg.cm 2 .dmol -1 ) Molar residue ellipticity (deg.cm 2 .dmol -1 ) Molar residue ellipticity (deg.cm 2 .dmol -1 ) Molar residue ellipticity (deg.cm 2 .dmol -1 ) TFE:H2O; CH3CN:H2O.)"}, "RNase S protein": {"target": "T1, RNase S protein (Bos taurus, UniProt P61823)", "T1 construct": "S protein 21-124; made in house; host or cells: proteolytic fragment of RNase A (subtilisin digestion)", "T1 sequence (P61823 47-150)": "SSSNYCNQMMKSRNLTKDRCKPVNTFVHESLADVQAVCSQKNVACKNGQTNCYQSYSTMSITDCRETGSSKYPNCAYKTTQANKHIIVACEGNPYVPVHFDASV", "test": "RNA degradation assay, restoration of S protein activity", "format": "biochemical", "settings": "EtBr-labelled RNA, S peptides 0.1-2 μM, 50 mM Tris, 100 mM NaCl, pH 7.50, 60 min, room temperature, fluorescence, triplicate", "experimental": "Fig. 5 Biophysical and bioactivity analyses of WT-S and S derived peptides 3–4a,c. (a) Circular dichroism spectra recorded in water (30% TFE); (b) RNA degradation assay showing the restoration of S protein activity. S protein was used as a negative control, and RNase A as a positive control. (50 mM Tris, 100 mM NaCl, pH 7.50).\nRNase A (10 mg) in Hepes (600 µL, 100 mM; pH = 8.0) was digested by subtilisin (5 mg/mL, 10 µL) for 4 hrs at 0 °C. After which, the buffer was acidified with a solution of HCl (1 M) to reach pH = 3. The acidic solution was stirred for 1 h at 2 °C. The reaction was monitored by HPLC using the Jupiter µ Proteo 90 A analytical column using a gradient (0-60% over 30 min). […]\nRNA degradation assays were performed in 96-well black plates (Greiner Bio-one). Each experiment was run in triplicate and the fluorescence was measured using a Perkin Elmer EnVisionTM 2103 MultiLabel plate reader, with an excitation and emission at 510 nm and at […]\nThe buffer used in this enzymatic assay was Tris buffer (50 mM of Tris, 100 mM of NaCl, pH = 7.5). The adequate quantity of buffer was first added to each well to reach a total volume of 200 µL (150 µL for controls, 149 µL for 0.1 µM of S peptides, 148 µL for 0.2 µM of S peptides, 145 µL for 0.5 µM of S peptides, 140 µL for 1 µM of S peptides, 130 µL for 2 µM of S peptides). […]"}}, "note": "Positions of bridges follow the written chain, without caps; N, C: chain ends. Residues, ends and D or L forms follow the SMILES beside them."}
{"compound": "CSCC[C@H](NC(=O)[C@H](Cc1c[nH]cn1)NC(=O)[C@H](CCC(N)=O)NC(=O)[C@@H]1CSSC[C@H](NC(=O)[C@H](C)NC(=O)[C@H](C)NC(=O)[C@@H](NC(=O)[C@H](CCC(=O)O)NC(=O)[C@H](CCCCN)NC(C)=O)[C@@H](C)O)C(=O)N[C@@H](CCCCN)C(=O)N[C@@H](Cc2ccccc2)C(=O)N[C@@H](CCC(=O)O)C(=O)N1)C(=O)N[C@@H](CC(=O)O)C(=O)N[C@@H](CO)C(N)=O", "note": "[2c] (Ac-KETAACKFECQHMDS-NH2; disulfide 6-10)", "values": [{"measurement": "Percentage of helicity, 30% CH3CN:H2O", "setting": "[1]; 30% CH3CN:H2O", "result": 0, "unit": "%"}, {"measurement": "Percentage of helicity, 30% TFE:H2O", "setting": "[1]; 30% TFE:H2O", "result": 0, "unit": "%"}, {"measurement": "Restoration of S protein (RNase) enzymatic activity", "setting": "RNase S protein", "result": "failure to restore S protein activity"}]}
